Data as given in patent US12552825B2 (Zikani Therapeutics, Inc., priority 2019, dated 2026).
Converted amounts (≈) assume the structure as drawn.

Experiments:
Assay type in all cases: cell-based
[1] = test system: S. aureus MP-12; assay: microbe, parasite or virus in culture; conditions: Staphylococcus aureus, MP12, read-out: MIC S. aureus MP-12
[2] = test system: E. coli MP-4; assay: MIC determination by CLSI broth dilution, E. coli MP-4; conditions: Escherichia coli, MP4, CLSI broth dilution; strain MP-4
[3] = test system: K. pneumoniae MP-648; assay: MIC determination by CLSI broth dilution, K. pneumoniae MP-648; conditions: Klebsiella pneumoniae, MP648, CLSI broth dilution; strain MP-648
[4] = test system: P. aeruginosa MP-3; assay: MIC determination by CLSI broth dilution, P. aeruginosa MP-3; conditions: Pseudomonas aeruginosa, MP3, strain MP-3
[5] = test system: A. baumannii MP-15; assay: MIC determination by CLSI broth dilution, A. baumannii MP-15; conditions: Acinetobacter baumannii, MP15, strain MP-15, read-out: MIC A. baumanii MP-15

`CCN1C[C@H](C)C[C@@](C)(OC)[C@H](O[C@@H]2O[C@H](C)C[C@H](N(C)C)[C@H]2O)[C@@H](C)C(=O)C(C)(C)C(=O)OC[C@@H]1CN1CCN(C(C)C)CC1` [Compound 159] gave an MIC [1] of 4 to 32 µg/mL (≈ 6.11 to 48.9 µM), an MIC [2] of less than 4 µg/mL and an MIC [3] of 4 to 32 µg/mL (≈ 6.11 to 48.9 µM). It also gave an MIC [4] greater than 32 µg/mL and an MIC [5] greater than 32 µg/mL.

With `CCN1C[C@H](C)C[C@@](C)(OC)[C@H](O[C@@H]2O[C@H](C)C[C@H](N(C)C)[C@H]2O)[C@@H](C)C(=O)C(C)(C)C(=O)OC[C@H]1CC1CCN(CCO)CC1` [Compound 169, (3R,6R,8R,9R,10R)-9-(((2S,3R,4S,6R)-4-(Dimethylamino)-3-hydroxy-6-methyltetrahydro-2H-pyran-2-yl)oxy)-4-ethyl-3-((1-(2-hydroxyethyl)piperidin-4-yl)methyl)-8-methoxy-6,8,10,12,12-pentamethyl-1-oxa-4-azacyclotridecane-11,13-dione] the MIC [1] was 4 to 32 µg/mL (≈ 6.1 to 48.8 µM), the MIC [2] was less than 4 µg/mL and the MIC [3] was 4 to 32 µg/mL (≈ 6.1 to 48.8 µM). The MIC [4] was greater than 32 µg/mL and the MIC [5] was greater than 32 µg/mL.

With `CCN1C[C@H](C)C[C@@](C)(OC)[C@H](O[C@@H]2O[C@H](C)C[C@H](N(C)C)[C@H]2O)[C@@H](C)C(=O)C(C)(C)C(=O)OC[C@H]1CC1CCN(CCOC)CC1` [Compound 170] the MIC [1] was 4 to 32 µg/mL (≈ 5.97 to 47.8 µM), the MIC [2] was less than 4 µg/mL and the MIC [3] was less than 4 µg/mL. It also gave an MIC [4] greater than 32 µg/mL and an MIC [5] greater than 32 µg/mL.

`CO[C@]1(C)C[C@@H](C)CN(C)[C@H](CC2CCN(CCO)CC2)COC(=O)C(C)(C)C(=O)[C@H](C)[C@H]1O[C@@H]1O[C@H](C)C[C@H](N(C)C)[C@H]1O` [Compound 178] showed an MIC [1] greater than 32 µg/mL, an MIC [2] of less than 4 µg/mL and an MIC [3] of less than 4 µg/mL. The MIC [4] was greater than 32 µg/mL and the MIC [5] was greater than 32 µg/mL.

Compound `CCN1C[C@H](C)C[C@@](C)(OC)[C@H](O[C@@H]2O[C@H](C)C[C@H](N(C)C)[C@H]2O)[C@@H](C)C(=O)C(C)(C)C(=O)OC[C@@H]1CCCN1CCN(C)CC1` [Compound 180] has an MIC [1] greater than 32 µg/mL, an MIC [2] of less than 4 µg/mL and an MIC [3] greater than 32 µg/mL. It also gave an MIC [4] greater than 32 µg/mL and an MIC [5] greater than 32 µg/mL.

`CCN1C[C@H](C)C[C@@](C)(OC)[C@H](O[C@@H]2O[C@H](C)C[C@H](N(C)C)[C@H]2O)[C@@H](C)C(=O)C(C)(C)C(=O)OC[C@@H]1CCCN1CCN(c2ccncc2)CC1` [Compound 181] was tested, and the MIC [1] was greater than 32 µg/mL, the MIC [2] was less than 4 µg/mL and the MIC [3] was greater than 32 µg/mL. It also gave an MIC [4] greater than 32 µg/mL and an MIC [5] greater than 32 µg/mL.

Compound `CCN1C[C@H](C)C[C@@](C)(OC)[C@H](O[C@@H]2O[C@H](C)C[C@H](N(C)C)[C@H]2O)[C@@H](C)C(=O)C(C)(C)C(=O)OC[C@H]1C=C1CCN(C2Cc3ccccc3C2)CC1` [Compound 191] has an MIC [1] of less than 4 µg/mL, an MIC [2] of less than 4 µg/mL and an MIC [3] of less than 4 µg/mL. For the same compound, the MIC [4] was greater than 32 µg/mL and the MIC [5] was 4 to 32 µg/mL (≈ 5.51 to 44.1 µM).

Compound `CCN1C[C@H](C)C[C@@](C)(OC)[C@H](O[C@@H]2O[C@H](C)C[C@H](N(C)C)[C@H]2O)[C@@H](C)C(=O)C(C)(C)C(=O)OC[C@H]1C=C1CCN(Cc2ccccc2)CC1` [Compound 192] has an MIC [1] of less than 4 µg/mL, an MIC [2] of less than 4 µg/mL and an MIC [3] of 4 to 32 µg/mL (≈ 5.71 to 45.7 µM). It also gave an MIC [4] greater than 32 µg/mL and an MIC [5] of 4 to 32 µg/mL (≈ 5.71 to 45.7 µM).

`CCN1C[C@H](C)C[C@@](C)(OC)[C@H](O[C@@H]2O[C@H](C)C[C@H](N(C)C)[C@H]2O)[C@@H](C)C(=O)C(C)(C)C(=O)OC[C@H]1[C@H](O)CCN(C)CC(F)(F)F` [Compound 193, (3S,6R,8R,9R,10R)-9-(((2S,3R,4S,6R)-4-(dimethylamino)-3-hydroxy-6-methyltetrahydro-2H-pyran-2-yl)oxy)-4-ethyl-3-((R)-1-hydroxy-3-(methyl(2,2,2-trifluoroethyl)amino)propyl)-8-methoxy-6,8,10,12,12-pentamethyl-1-oxa-4-azacyclotridecane-11,13-dione] gave an MIC [1] greater than 32 µg/mL, an MIC [2] of 4 to 32 µg/mL (≈ 5.85 to 46.8 µM) and an MIC [3] greater than 32 µg/mL. The MIC [4] was greater than 32 µg/mL and the MIC [5] was greater than 32 µg/mL.

`CCN1C[C@H](C)C[C@@](C)(OC)[C@H](O[C@@H]2O[C@H](C)C[C@H](N(C)C)[C@H]2O)[C@@H](C)C(=O)C(C)(C)C(=O)OC[C@H]1[C@H](O)CCN(C)Cc1ccccc1` [Compound 194] gave an MIC [1] of 4 to 32 µg/mL (≈ 5.78 to 46.2 µM), an MIC [2] of less than 4 µg/mL and an MIC [3] of less than 4 µg/mL. The MIC [4] was greater than 32 µg/mL and the MIC [5] was 4 to 32 µg/mL (≈ 5.78 to 46.2 µM).

With `CO[C@]1(C)C[C@@H](C)CN(C)[C@H](/C=C/CN(C)Cc2ccc(F)cc2)COC(=O)C(C)(C)C(=O)[C@H](C)[C@H]1O[C@@H]1O[C@H](C)C[C@H](N(C)C)[C@H]1O` [Compound 195] the MIC [1] was 4 to 32 µg/mL (≈ 5.9 to 47.2 µM), the MIC [2] was less than 4 µg/mL and the MIC [3] was 4 to 32 µg/mL (≈ 5.9 to 47.2 µM). It also gave an MIC [4] greater than 32 µg/mL and an MIC [5] of 4 to 32 µg/mL (≈ 5.9 to 47.2 µM).

With `CCN(C)[C@H]1C[C@H](C[C@]2(C)COC(=O)C(C)(C)C(=O)[C@H](C)[C@@H](O[C@@H]3O[C@H](C)C[C@H](N(C)C)[C@H]3O)[C@](C)(OC)C[C@@H](C)CN2C)C1` [Compound 196] the MIC [1] was 4 to 32 µg/mL (≈ 6.25 to 50 µM), the MIC [2] was less than 4 µg/mL and the MIC [3] was greater than 32 µg/mL. The MIC [4] was greater than 32 µg/mL and the MIC [5] was greater than 32 µg/mL.

For `CO[C@]1(C)C[C@@H](C)CN(C)[C@](C)(C[C@H]2C[C@H](N(C)CC3CC3)C2)COC(=O)C(C)(C)C(=O)[C@H](C)[C@H]1O[C@@H]1O[C@H](C)C[C@H](N(C)C)[C@H]1O` [Compound 197], the MIC [1] was 4 to 32 µg/mL (≈ 6.01 to 48.1 µM), the MIC [2] was less than 4 µg/mL and the MIC [3] was 4 to 32 µg/mL (≈ 6.01 to 48.1 µM). It also gave an MIC [4] greater than 32 µg/mL and an MIC [5] greater than 32 µg/mL.

Work on `CO[C@]1(C)C[C@@H](C)CN(C)[C@](C)(C[C@H]2C[C@H](N(C)C(C)C)C2)COC(=O)C(C)(C)C(=O)[C@H](C)[C@H]1O[C@@H]1O[C@H](C)C[C@H](N(C)C)[C@H]1O` [Compound 198] yielded an MIC [1] of 4 to 32 µg/mL (≈ 6.12 to 48.9 µM), an MIC [2] of 4 to 32 µg/mL (≈ 6.12 to 48.9 µM) and an MIC [3] greater than 32 µg/mL. It also gave an MIC [4] greater than 32 µg/mL and an MIC [5] greater than 32 µg/mL.

For `CN[C@H]1C[C@H](C[C@]2(C)COC(=O)C(C)(C)C(=O)[C@H](C)[C@@H](O[C@@H]3O[C@H](C)C[C@H](N(C)C)[C@H]3O)[C@](C)(OC)C[C@@H](C)CN2C)C1` [Compound 199], the MIC [1] was 4 to 32 µg/mL (≈ 6.54 to 52.3 µM), the MIC [2] was 4 to 32 µg/mL (≈ 6.54 to 52.3 µM) and the MIC [3] was greater than 32 µg/mL. For the same compound, the MIC [4] was greater than 32 µg/mL and the MIC [5] was greater than 32 µg/mL.

`CCN1C[C@H](C)C[C@@](C)(OC)[C@H](O[C@@H]2O[C@H](C)C[C@H](N(C)C)[C@H]2O)[C@@H](C)C(=O)C(C)(C)C(=O)OC[C@H]1[C@H](O)CCO` [Compound 200, (3S,6R,8R,9R,10R)-3-((R)-1,3-dihydroxypropyl)-9-(((2S,3R,4S,6R)-4-(dimethylamino)-3-hydroxy-6-methyltetrahydro-2H-pyran-2-yl)oxy)-4-ethyl-8-methoxy-6,8,10,12,12-pentamethyl-1-oxa-4-azacyclotridecane-11,13-dione] showed an MIC [1] greater than 32 µg/mL, an MIC [2] of 4 to 32 µg/mL (≈ 6.79 to 54.3 µM) and an MIC [3] greater than 32 µg/mL. It also gave an MIC [4] greater than 32 µg/mL and an MIC [5] greater than 32 µg/mL.

For `CO[C@]1(C)C[C@@H](C)CN(C)[C@H]([C@H](O)[C@@H](O)CO)COC(=O)C(C)(C)C(=O)[C@H](C)[C@H]1O[C@@H]1O[C@H](C)C[C@H](N(C)C)[C@H]1O` [Compound 201], the MIC [1] was greater than 32 µg/mL, the MIC [2] was 4 to 32 µg/mL (≈ 6.77 to 54.2 µM) and the MIC [3] was greater than 32 µg/mL. For the same compound, the MIC [4] was greater than 32 µg/mL and the MIC [5] was greater than 32 µg/mL.

`CCCN(CCC)CC[C@@H](O)[C@@H]1COC(=O)C(C)(C)C(=O)[C@H](C)[C@@H](O[C@@H]2O[C@H](C)C[C@H](N(C)C)[C@H]2O)[C@](C)(OC)C[C@@H](C)CN1CC` [Compound 223] gave an MIC [1] of 4 to 32 µg/mL (≈ 5.95 to 47.6 µM), an MIC [2] of less than 4 µg/mL and an MIC [3] of 4 to 32 µg/mL (≈ 5.95 to 47.6 µM). For the same compound, the MIC [4] was greater than 32 µg/mL and the MIC [5] was greater than 32 µg/mL.

Work on `CCN1C[C@H](C)C[C@@](C)(OC)[C@H](O[C@@H]2O[C@H](C)C[C@H](N(C)C)[C@H]2O)[C@@H](C)C(=O)C(C)(C)C(=O)OC[C@H]1[C@H](O)CCN(C)C(C)C` [Compound 224] yielded an MIC [1] of 4 to 32 µg/mL (≈ 6.21 to 49.7 µM), an MIC [2] of less than 4 µg/mL and an MIC [3] of 4 to 32 µg/mL (≈ 6.21 to 49.7 µM). It also gave an MIC [4] greater than 32 µg/mL and an MIC [5] greater than 32 µg/mL.
